Test results taken from ChEMBL document CHEMBL3352000, “Discovery of (R)-1-(7-chloro-2,2-bis(fluoromethyl)chroman-4-yl)-3-(3-methylisoquinolin-5-yl)urea (A-1165442): a temperature-neutral transient receptor potential vanilloid-1 (TRPV1) antagonist with analgesic efficacy” (J Med Chem, 2014).
The source made the active and inactive calls. The rule behind the calls is not given here.

Experiments:
[1] = Intrinsic clearance in human liver microsomes; type: ADME; details: read-out: CLH
[2] = target: T1, Transient receptor potential cation channel subfamily V member 1 (Homo sapiens, UniProt Q8NER1); assay: Antagonist activity against human TRPV1 expressed in HEK293 cells assessed as ph 5.0-induced calcium flux at 30 uM by FLIPR assay; type: cell-based
Cytochrome P450 2D6 = Cytochrome P450 2D6 (Homo sapiens, UniProt P10635); assay: Inhibition of CYP2D6 in human liver microsomes using AMMC substrate and NADPH incubated up to 2 hrs; type: ADME
Cytochrome P450 3A4 = Cytochrome P450 3A4 (Homo sapiens, UniProt P08684); assay: Inhibition of CYP3A4 in human liver microsomes using 7-benzyloxyquiniline substrate and NADPH incubated up to 2 hrs
Rattus norvegicus = organism: Rattus norvegicus; assay: Induction of hyperthermia in rat assessed as increase in body temperature measured every 5 mins during study period by telemetry; type: organism-based; details: in vivo
[3] = target: T1, Transient receptor potential cation channel subfamily V member 1; assay: Antagonist activity against human TRPV1 expressed in HEK293 cells assessed as capsaicin-induced calcium flux by FLIPR assay; type: cell-based
[4] = target: T1, Transient receptor potential cation channel subfamily V member 1; assay: Antagonist activity against human TRPV1 expressed in HEK293 cells assessed as NADA-induced calcium flux by FLIPR assay; type: cell-based

Sequence of Cytochrome P450 2D6 (P10635 whole entry): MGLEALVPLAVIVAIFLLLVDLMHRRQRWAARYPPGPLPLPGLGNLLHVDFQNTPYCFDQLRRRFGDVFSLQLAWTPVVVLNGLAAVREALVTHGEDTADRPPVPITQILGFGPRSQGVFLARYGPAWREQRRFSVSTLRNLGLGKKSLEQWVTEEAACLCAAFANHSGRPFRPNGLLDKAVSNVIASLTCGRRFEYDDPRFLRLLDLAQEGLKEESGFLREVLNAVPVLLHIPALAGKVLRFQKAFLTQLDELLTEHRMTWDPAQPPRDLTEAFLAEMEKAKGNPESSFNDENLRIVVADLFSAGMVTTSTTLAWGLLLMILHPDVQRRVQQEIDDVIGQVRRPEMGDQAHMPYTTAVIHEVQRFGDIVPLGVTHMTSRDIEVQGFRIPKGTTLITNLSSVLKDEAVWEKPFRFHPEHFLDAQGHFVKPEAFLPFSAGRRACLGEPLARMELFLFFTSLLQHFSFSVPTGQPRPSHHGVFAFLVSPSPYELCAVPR
T1 sequence (Q8NER1 whole entry): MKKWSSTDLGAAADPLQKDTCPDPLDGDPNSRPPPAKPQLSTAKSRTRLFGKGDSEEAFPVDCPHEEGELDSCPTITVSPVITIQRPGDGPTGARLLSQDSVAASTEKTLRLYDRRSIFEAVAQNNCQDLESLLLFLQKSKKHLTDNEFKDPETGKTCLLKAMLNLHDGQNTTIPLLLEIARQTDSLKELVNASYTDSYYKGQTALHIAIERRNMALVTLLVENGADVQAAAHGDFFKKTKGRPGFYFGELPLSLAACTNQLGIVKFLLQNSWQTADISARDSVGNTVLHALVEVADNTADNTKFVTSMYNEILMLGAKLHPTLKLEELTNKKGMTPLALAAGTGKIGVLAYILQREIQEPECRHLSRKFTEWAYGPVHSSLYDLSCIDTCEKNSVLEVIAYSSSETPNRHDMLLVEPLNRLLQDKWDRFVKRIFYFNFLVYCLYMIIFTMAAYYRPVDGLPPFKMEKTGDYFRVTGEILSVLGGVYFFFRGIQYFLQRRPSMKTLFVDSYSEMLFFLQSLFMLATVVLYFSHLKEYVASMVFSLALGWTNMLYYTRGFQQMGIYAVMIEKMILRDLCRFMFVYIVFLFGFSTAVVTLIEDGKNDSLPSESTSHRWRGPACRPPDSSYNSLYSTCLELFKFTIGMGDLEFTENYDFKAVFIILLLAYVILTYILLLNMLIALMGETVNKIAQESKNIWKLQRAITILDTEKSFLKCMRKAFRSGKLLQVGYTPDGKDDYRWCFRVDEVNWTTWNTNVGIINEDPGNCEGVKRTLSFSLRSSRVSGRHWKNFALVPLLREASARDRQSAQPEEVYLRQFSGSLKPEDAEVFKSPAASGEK
Sequence of Cytochrome P450 3A4 (P08684 whole entry): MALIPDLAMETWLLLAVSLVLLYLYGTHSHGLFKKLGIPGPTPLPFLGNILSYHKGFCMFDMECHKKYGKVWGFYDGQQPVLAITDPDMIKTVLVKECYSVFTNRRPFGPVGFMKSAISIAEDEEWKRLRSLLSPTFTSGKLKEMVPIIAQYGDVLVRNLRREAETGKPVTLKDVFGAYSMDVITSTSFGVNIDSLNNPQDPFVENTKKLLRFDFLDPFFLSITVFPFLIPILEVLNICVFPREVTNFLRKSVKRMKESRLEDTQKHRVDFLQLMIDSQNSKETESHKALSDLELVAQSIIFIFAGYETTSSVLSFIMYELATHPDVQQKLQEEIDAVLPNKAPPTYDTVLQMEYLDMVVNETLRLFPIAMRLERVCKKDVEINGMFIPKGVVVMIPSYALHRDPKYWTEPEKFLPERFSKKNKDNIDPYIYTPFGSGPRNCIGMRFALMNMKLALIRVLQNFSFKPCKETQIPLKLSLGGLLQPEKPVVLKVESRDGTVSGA

| microsomal CLint [1] | inhibition [2] | IC50 (Cytochrome P450 2D6) | IC50 (Cytochrome P450 3A4) | IC50 [3] | inhibition [4] | Compound | deltaT (Rattus norvegicus) |
| --- | --- | --- | --- | --- | --- | --- | --- |
| 100 µL/min/mg | 69% | > 20000 nM | > 20000 nM | 32 nM | – | Cc1cc2c(NC(=O)N[C@@H]3CC(C)(C)Oc4c(F)cc(F)cc43)cccc2cn1 | 0 °C |
| 210 µL/min/mg | 61% | < 80 nM | 660 nM | 4 nM | Active | CC1(C)C[C@@H](NC(=O)Nc2cccc3cnccc23)c2ccc(F)cc2O1 | -0.5 °C |
| – | 96% | – | – | 74 nM | – | Cc1cc2c(NC(=O)N[C@@H]3CC(CF)(CF)Oc4cc(Cl)ccc43)c(C)ccc2cn1 | 1.1 °C |
| 82 µL/min/mg | 72% | 19000 nM | > 20000 nM | 5 nM | – | Cc1cc2c(NC(=O)N[C@@H]3CC(CF)(CF)Oc4cc(F)ccc43)cccc2cn1 | 0 °C |
| 140 µL/min/mg | 96% | 80 nM | 2200 nM | 6 nM | – | CC1(C)C[C@@H](NC(=O)Nc2cccc3cnccc23)c2ccc(OC(F)(F)F)cc2O1 | 1 °C |
| 390 µL/min/mg | 66% | < 80 nM | 2800 nM | 6 nM | – | CCC1(CC)C[C@@H](NC(=O)Nc2cccc3cnccc23)c2cc(F)ccc2O1 | -0.2 °C |
| – | 97% | – | – | 97 nM | – | Cc1cc2c(NC(=O)N[C@@H]3CC(CF)(CF)Oc4cc(Cl)ccc43)ccc(C)c2cn1 | 1.2 °C |
| – | 95% | – | – | 350 nM | – | Cc1cc2c(NC(=O)N[C@@H]3CC(CF)(CF)Oc4cc(Cl)ccc43)c(Cl)ccc2cn1 | 1.1 °C |
| – | 98% | – | – | 21 nM | – | C[C@@H]1CN(c2ncccc2Cl)CC=C1C(=O)Nc1ccc(C(F)(F)F)cc1 | 1 °C |
| – | 98% | – | – | 7 nM | – | Cn1ncc2c(NC(=O)N[C@@H]3CC(C)(C)Oc4cc(F)ccc43)cccc21 | 1.3 °C |
| 140 µL/min/mg | 70% | 17000 nM | > 20000 nM | 3 nM | – | Cc1cc2c(NC(=O)N[C@@H]3CC(C)(C)Oc4cc(F)ccc43)cccc2cn1 | 0 °C |
| 100 µL/min/mg | 58% | > 20000 nM | > 20000 nM | 5 nM | – | Cc1cc2c(NC(=O)N[C@@H]3CC(C)(C)Oc4c3ccc(F)c4F)cccc2cn1 | 0 °C |
| 110 µL/min/mg | 95% | 6000 nM | > 20000 nM | 32 nM | – | Cc1cc2c(NC(=O)N[C@@H]3CC(C)(C)Oc4cc(OC(F)(F)F)ccc43)cccc2cn1 | 1.7 °C |
| 180 µL/min/mg | 70% | < 80 nM | 1000 nM | 2 nM | Active | CC1(C)C[C@@H](NC(=O)Nc2cccc3cnccc23)c2cc(F)ccc2O1 | 0 °C |
| – | 95% | – | – | 16 nM | – | CC1(C)C[C@@H](NC(=O)Nc2cccc3[nH]ncc23)c2ccc(F)cc2O1 | 1.2 °C |
| – | 99% | – | – | 7 nM | – | CC1(C)C[C@@H](NC(=O)Nc2cccc3c2C[C@@H](O)CC3)c2ccc(F)cc2O1 | 1 °C |
